# Test results: PubChem BioAssay (NCI)
#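 Interpolation was linear, between the two tested concentrations surrounding the appropriate level; five concentrations were tested over 48 hours in 96-well plates. TGI denotes the concentration required for complete inhibition of growth.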
# Experiments:
# Test in all cases: growth of human tumour cells (NCI), 48 h
# 786-0 renal = test system: 786-0 renal
# HOP-92 NSCLC = test system: HOP-92 NSCLC
# DMS 114 small cell lung = test system: DMS 114 small cell lung
# LXFL 529 NSCLC = test system: LXFL 529 NSCLC
# M19-MEL melanoma = test system: M19-MEL melanoma
# SNB-78 CNS = test system: SNB-78 CNS
# KM20L2 colon = test system: KM20L2 colon
# DLD-1 colon = test system: DLD-1 colon
# HOP-18 NSCLC = test system: HOP-18 NSCLC
# DMS 273 small cell lung = test system: DMS 273 small cell lung
# XF 498 CNS = test system: XF 498 CNS
# RXF-631 renal = test system: RXF-631 renal
SMILES,TGI (786-0 renal),TGI (HOP-92 NSCLC),further results
CCOP(=O)(CS(C)=O)O[C@@H]1C[C@H](C)CC[C@H]1C(C)C (some centres not stated),6.35 µM,16.9 µM,–
CCCCCCN(C(=O)Oc1ccccc1)C(C#N)c1ccccc1 (configuration not stated),> 100 µM,> 100 µM,–
O=C1C(NCCc2cc(Br)c(O)c(Br)c2)=CC(=O)c2ncccc21,34.4 µM,47.5 µM,–
CC(=O)NNC=N/C(C#N)=C(\N)C#N,> 100 µM,–,–
Cn1c(=O)nc2n(CCO)c(-c3ccccc3)c(-c3ccccc3)nc-2c1=O,> 100 µM,> 100 µM,–
O=C(Nc1ccc(C(F)(F)F)cc1[N+](=O)[O-])C(=O)C(C(=O)c1ccc2ccccc2c1)C1OC(=O)c2ccccc21 (configuration not stated),19.5 µM,4 µM,TGI (DMS 114 small cell lung): 40.5 µM; TGI (LXFL 529 NSCLC): 20.9 µM; TGI (M19-MEL melanoma): 42.7 µM; TGI (SNB-78 CNS): 35.4 µM; TGI (KM20L2 colon): 38.7 µM; TGI (DLD-1 colon): 26.7 µM
COc1ccc(CCN2CCC(C#N)(c3ccc(OC)c(OC)c3)CC2)cc1OC,> 100 µM,> 100 µM,TGI (HOP-18 NSCLC): > 100 µM; TGI (DMS 273 small cell lung): > 100 µM; TGI (DMS 114 small cell lung): > 100 µM; TGI (LXFL 529 NSCLC): > 100 µM; TGI (M19-MEL melanoma): > 100 µM; TGI (KM20L2 colon): > 100 µM; TGI (DLD-1 colon): > 100 µM; TGI (XF 498 CNS): > 100 µM
COc1cc(C2c3cccc4cccc(c34)C3CCC(=O)N32)cc(O)c1O (configuration not stated),> 50 µM,> 50 µM,–
COc1ccccc1NC(=O)C(C#N)=C(SC)SC,> 100 µM,> 100 µM,–
O=C1/C(=C/c2cccc([N+](=O)[O-])c2)COc2ccccc21,3.16 µM,> 72.8 µM,TGI (HOP-18 NSCLC): 24.8 µM; TGI (DMS 114 small cell lung): 8.14 µM; TGI (LXFL 529 NSCLC): 7.79 µM; TGI (M19-MEL melanoma): 5.49 µM; TGI (RXF-631 renal): 31.7 µM; TGI (SNB-78 CNS): > 100 µM; TGI (KM20L2 colon): > 100 µM; TGI (DLD-1 colon): 9.56 µM
CC(=O)Nc1c(C)cc(OCC(=O)O)cc1C,> 100 µM,> 100 µM,–
CC1=NC(=Cc2ccc(Cl)cc2)C(=O)N1n1c(-c2ccccc2)nc2ccccc2c1=O,> 100 µM,–,–
Oc1ccccc1C=Nc1ccc(Oc2ccc(Cl)cc2)c(Cl)c1,98.7 µM,41.4 µM,–
Fc1ccc(C(OCCN2CCC3CCC(C2)N3CCCc2ccccc2)c2ccc(F)cc2)cc1 (configuration not stated),5.57 µM,18.9 µM,–
COc1ccc2c(c1)c(Cc1c(C)n(C)c3ccc(OC)cc13)c(C)n2C,> 100 µM,> 100 µM,TGI (HOP-18 NSCLC): > 100 µM; TGI (DMS 273 small cell lung): > 100 µM; TGI (DMS 114 small cell lung): > 100 µM; TGI (LXFL 529 NSCLC): > 100 µM; TGI (M19-MEL melanoma): > 100 µM; TGI (SNB-78 CNS): > 100 µM; TGI (KM20L2 colon): > 100 µM; TGI (DLD-1 colon): > 100 µM; TGI (XF 498 CNS): > 100 µM
C/C(C=O)=N\Nc1cc(C)c2ccccc2n1,28.7 µM,29.6 µM,–
COc1ccc(/C=C/C(=O)NCC(NC(=O)/C=C/c2ccc(OC)c(OC)c2)C(=O)O)cc1OC (configuration not stated),> 100 µM,0.74 µM,–
c1ccc(C2=NN(c3ccccc3)C3(S2)SC(c2ccccc2)(c2ccccc2)c2ccccc23)cc1 (configuration not stated),> 100 µM,> 100 µM,TGI (DMS 273 small cell lung): > 100 µM; TGI (DMS 114 small cell lung): > 100 µM; TGI (LXFL 529 NSCLC): > 100 µM; TGI (M19-MEL melanoma): > 100 µM; TGI (SNB-78 CNS): > 100 µM; TGI (KM20L2 colon): > 100 µM; TGI (DLD-1 colon): > 100 µM; TGI (XF 498 CNS): > 100 µM
O=C1/C(=C/c2cccc([N+](=O)[O-])c2)CCCc2ccccc21,26.6 µM,29.6 µM,–

SMILES,TGI (786-0 renal),TGI (HOP-92 NSCLC),further results
N#C/C(=C\c1ccc(Cl)cc1)c1nc2ccccc2c(=O)[nH]1,> 100 µM,39.9 µM,–
COc1ccc(NC=O)c(C(O)CCNC(C)=O)c1 (configuration not stated),> 100 µM,> 100 µM,–
N#Cc1c(-c2ccccc2)c(C#N)c(=O)n(NS(=O)(=O)c2ccccc2)c1O,> 100 µM,> 100 µM,–
Cc1ccc(S(=O)(=O)N/N=C2\C(=O)C3CC2C(Cl)C3Cl)cc1 (configuration not stated),> 100 µM,> 100 µM,TGI (HOP-18 NSCLC): > 100 µM; TGI (DMS 273 small cell lung): > 100 µM; TGI (DMS 114 small cell lung): > 100 µM; TGI (LXFL 529 NSCLC): > 100 µM; TGI (RXF-631 renal): > 100 µM; TGI (KM20L2 colon): > 100 µM; TGI (DLD-1 colon): > 100 µM
CN(C(=O)C1=CCCCCC1)c1ccccc1I,> 100 µM,–,–
COc1c(O)cc(/C=C/c2cc(O)cc3c2[C@@]2(C(=O)O3)c3c(O)cc(O)cc3OC2c2cccc(O)c2)cc1O (some centres not stated),> 100 µM,> 100 µM,–
N#CCCc1nc2ccc(Br)cc2c(=O)n1-c1ccc(O)c([N+](=O)[O-])c1,43.2 µM,51.6 µM,TGI (LXFL 529 NSCLC): 40 µM; TGI (M19-MEL melanoma): 42.3 µM; TGI (RXF-631 renal): 33.9 µM; TGI (SNB-78 CNS): 76.7 µM; TGI (KM20L2 colon): > 100 µM; TGI (DLD-1 colon): 34.7 µM; TGI (XF 498 CNS): 34.9 µM
CCN(CC)c1ccc(/C=C/C2=NN(c3cccc(S(=O)(=O)O)c3)C3(C2)C(Cl)C(=O)N3c2nc3ccccc3s2)cc1 (configuration not stated),15.9 µM,15.3 µM,–
NC(=S)N/N=C/c1cc(CN2CCOCC2)c(N)cn1,> 100 µM,–,–
O=S(=O)(CC1=NC2C=CC=CC2N=C1)NCc1ccccc1 (configuration not stated),> 100 µM,> 100 µM,TGI (HOP-18 NSCLC): > 100 µM; TGI (DMS 273 small cell lung): > 100 µM; TGI (LXFL 529 NSCLC): > 100 µM; TGI (M19-MEL melanoma): > 100 µM; TGI (KM20L2 colon): > 100 µM; TGI (DLD-1 colon): > 100 µM; TGI (XF 498 CNS): > 100 µM
CN(CCO)CC(=O)CC(O)(C(F)(F)F)C(F)(F)F,> 100 µM,54.2 µM,–
CC1C2CC(C(C3C(=O)C4CC3C(C)(C)C4C)C2=O)C1(C)C (configuration not stated),> 100 µM,> 100 µM,–
COc1ccc2oc(=N)c(C(N)=S)cc2c1,> 100 µM,50.7 µM,–
CC1CCCc2c(-c3ccc(Cl)cc3)nc(N)c(C#N)c21 (configuration not stated),> 100 µM,–,–
Oc1cn(-c2ccc(Cl)cc2)nc1-c1nnc(Nc2ccccc2)o1,36.1 µM,–,–
C/C(C=O)=C1\C(O)C[C@]1(C)C1CC(C)(C)CC1O (some centres not stated),> 100 µM,> 100 µM,TGI (DMS 273 small cell lung): > 100 µM; TGI (DMS 114 small cell lung): > 100 µM; TGI (LXFL 529 NSCLC): > 100 µM; TGI (M19-MEL melanoma): > 100 µM; TGI (SNB-78 CNS): > 100 µM; TGI (KM20L2 colon): > 100 µM; TGI (DLD-1 colon): > 100 µM
CSC1=N/C(=C\c2cccs2)C(=O)N1CN1CCCCC1,> 100 µM,96.5 µM,–
COc1ccc(CSCc2cc(OC)c(OC)c(OC)c2)cc1,> 100 µM,> 86.6 µM,–
CCOC(=O)CNC(=O)C(CSC(=O)N(O)c1ccc(Br)cc1)NC(=O)CCC(N)C(=O)OCC (configuration not stated),> 50 µM,> 50 µM,–
